The values below come from patent US10702507B2, “Endoparasite control agent” (THE UNIVERSITY OF TOKYO, priority 2014, dated 2020).

The structures appear in SMILES notation.

The test system of this test is 1st-stage larvae of Haemonchus contortus. The experiment in a line: Test for effect on motion of larvae of Haemonchus nematode. Conditions: 20 larvae per well, 27° C./95% RH for 4 days, corrected against DMSO negative control, duplicate. The method, then:
Test for Effect on Motion of Larvae of Haemonchus Nematode (Haemonchus contortus) The compound of the present invention was prepared as solutions in 100% DMSO at the final concentrations of 50 ppm, 5 ppm, 0.5 ppm, 0.05 ppm and 0.005 ppm. DMSO stands for dimethyl sulfoxide. A larval suspension containing 1st-stage larvae of Haemonchus contortus harvested by the Baermann technique (for example, see K. Nakazono et al., “Inclination of Baermann funnel wall and efficiency of nematode extraction” Proc. Assoc. Pl. Prot. Kyushu 33: 126-130 (1987)) was placed at a density of 20 larvae per well in a test plate, and 0.5 μL/well of the test solution containing the compound of the present invention diluted to a predetermined concentration was added to the test plate. The plate was kept under the conditions of 27° C./95% RH for 4 days. In the test, ivermectin was used for the positive control and DMSO was used for the negative control. The motor ability of the larvae was examined with an automatic analyzer equipped with an LCD camera. The inhibitory effect on the motion of the larvae in each treatment plot was corrected based on the inhibitory effect in the plot treated with DMSO only for the negative control. The EC50 value was calculated from the data on the corrected inhibitory effect on the motion of the larvae, and graded according to the criteria shown below. The test was conducted in duplicate per plot.
For `CC(CNC(=O)c1ccccc1C(F)(F)F)c1ccc(Oc2ncc(C(F)(F)F)cc2Cl)cc1Cl` (racemic) [Compound 1-41], the “EC50 value of corrected inhibitory effect on the motion of the larvae, graded” value was “C or higher”. As to `CC(CNC(=O)c1ccccc1C(F)(F)F)c1ccc(Oc2ccc(C(F)(F)F)cn2)cc1Cl` (racemic) [Compound 1-42], the “EC50 value of corrected inhibitory effect on the motion of the larvae, graded” value is given as “C or higher”. Regarding `CC(CNC(=O)c1ccccc1C(F)(F)F)c1ccc(Oc2ncc(Cl)cc2Cl)cc1Cl` (racemic) [Compound 1-43], the “EC50 value of corrected inhibitory effect on the motion of the larvae, graded” value is “C or higher”.

For the compound `CC(CNC(=O)c1ccccc1C(F)(F)F)c1ccc(-c2ccc(C(F)(F)F)cc2)cc1Cl` (racemic) [Compound 1-57], the “EC50 value of corrected inhibitory effect on the motion of the larvae, graded” value is given as “C or higher”. In the case of `CC(CNC(=O)c1ccccc1C(F)(F)F)c1ccc(-c2ccccc2)cc1Cl` (racemic) [Compound 1-58], the “EC50 value of corrected inhibitory effect on the motion of the larvae, graded” value is given as “C or higher”. With `CC(CNC(=O)c1ccccc1C(F)(F)F)c1ccc(-c2ccncc2)cc1Cl` (racemic) [Compound 1-59] the entry was “C or higher”.

As for `COC(CNC(=O)c1ccccc1C(F)(F)F)c1ccc(Oc2ncc(C(F)(F)F)cc2Cl)cc1Cl` (racemic) [Compound 1-60], the “EC50 value of corrected inhibitory effect on the motion of the larvae, graded” value is given as “C or higher”. With `COC(CNC(=O)c1ccccc1C(F)(F)F)c1ccc(Oc2ccc(C(F)(F)F)cn2)cc1Cl` (racemic) [Compound 1-61] the entry was “C or higher”; with `COC(CNC(=O)c1ccccc1C(F)(F)F)c1ccc(Oc2ncc(Cl)cc2Cl)cc1Cl` (racemic) [Compound 1-62], “C or higher”. For `O=C(NCCc1ccc(Oc2ncc(Cl)cc2Cl)cc1Cl)c1ccccc1C(F)(F)F` [Compound 1-1], the “EC50 value of corrected inhibitory effect on the motion of the larvae, graded” value is listed as “C or higher”. As for `O=C(NCCc1ccc(Oc2ncc(Br)cc2Cl)cc1Cl)c1ccccc1C(F)(F)F` [Compound 1-2], the “EC50 value of corrected inhibitory effect on the motion of the larvae, graded” value is recorded as “C or higher”. With `O=C(NCCc1ccc(Oc2nccnc2C(F)(F)F)cc1Cl)c1ccccc1C(F)(F)F` [Compound 1-3], the “EC50 value of corrected inhibitory effect on the motion of the larvae, graded” value was “C or higher”. `O=C(NCCc1ccc(Oc2nccnc2Cl)cc1Cl)c1ccccc1C(F)(F)F` [Compound 1-4]: the “EC50 value of corrected inhibitory effect on the motion of the larvae, graded” value is “C or higher”. In the case of `O=C(NCCc1ccc(Oc2cnccn2)cc1Cl)c1ccccc1C(F)(F)F` [Compound 1-5], the “EC50 value of corrected inhibitory effect on the motion of the larvae, graded” value is “C or higher”.

As for `COc1cc(OC)nc(Oc2ccc(CCNC(=O)c3ccccc3C(F)(F)F)c(Cl)c2)n1` [Compound 1-6], the “EC50 value of corrected inhibitory effect on the motion of the larvae, graded” value is “C or higher”. Take `Cc1cc(C)nc(Oc2ccc(CCNC(=O)c3ccccc3C(F)(F)F)c(Cl)c2)n1` [Compound 1-7]: the “EC50 value of corrected inhibitory effect on the motion of the larvae, graded” value was “C or higher”. As to `O=C(NCCc1ccc(Oc2ccnc(Cl)n2)cc1Cl)c1ccccc1C(F)(F)F` [Compound 1-8], the “EC50 value of corrected inhibitory effect on the motion of the larvae, graded” value is “C or higher”. `O=C(NCCc1ccc(Oc2cc(Cl)nc(Cl)n2)cc1Cl)c1ccccc1C(F)(F)F` [Compound 1-9]: the “EC50 value of corrected inhibitory effect on the motion of the larvae, graded” value was “C or higher”. `Cc1cc(Oc2ccc(CCNC(=O)c3ccccc3C(F)(F)F)c(Cl)c2)nc(Cl)n1` [Compound 1-10]: the “EC50 value of corrected inhibitory effect on the motion of the larvae, graded” value was “C or higher”.

As for `Cc1cnc(Cl)nc1Oc1ccc(CCNC(=O)c2ccccc2C(F)(F)F)c(Cl)c1` [Compound 1-11], the “EC50 value of corrected inhibitory effect on the motion of the larvae, graded” value was “C or higher”.

As to `O=C(NCCc1ccc(Oc2ccc3ccccc3n2)cc1Cl)c1ccccc1C(F)(F)F` [Compound 1-13], the “EC50 value of corrected inhibitory effect on the motion of the larvae, graded” value is “C or higher”. `O=C(NCCc1ccc(Oc2cnc3ccccc3n2)cc1Cl)c1ccccc1C(F)(F)F` [Compound 1-14]: the “EC50 value of corrected inhibitory effect on the motion of the larvae, graded” value is reported as “C or higher”.
